According to ChEMBL document CHEMBL4270577, “Synthesis, anticancer activity and molecular modeling studies of 1,2,4-triazole derivatives as EGFR inhibitors” (Eur J Med Chem, 2018):

Experiments:
SNB-75 = assay: Growth inhibition of human SNB75 cells at 10 uM incubated for 48 hrs by sulforhodamine B assay relative to control; format: functional; details: SNB-75, 48 h, read-out: GI
A549 = assay: Growth inhibition of human A549/ATCC cells at 10 uM incubated for 48 hrs by sulforhodamine B assay relative to control; format: functional; details: A549, 48 h, read-out: GI
MIA PaCa-2 = assay: Antiproliferative activity against human MIAPaCa2 cells after 48 hrs by propidium iodide staining-based fluorometric analysis; format: functional, cell-based; details: MIA PaCa-2, 48 h
Hs-578T = assay: Growth inhibition of human Hs 578T cells at 10 uM incubated for 48 hrs by sulforhodamine B assay relative to control; format: functional; details: read-out: GI
CCRF-CEM = assay: Growth inhibition of human CCRF-CEM cells at 10 uM incubated for 48 hrs by sulforhodamine B assay relative to control; format: functional; details: read-out: GI
NCI-H522 = assay: Growth inhibition of human NCI-H522 cells at 10 uM incubated for 48 hrs by sulforhodamine B assay relative to control; format: functional; details: NCI-H522, 48 h, read-out: GI
UO-31 = assay: Growth inhibition of human UO31 cells at 10 uM incubated for 48 hrs by sulforhodamine B assay relative to control; format: functional; details: UO-31, 48 h, read-out: GI
HT-29 [1] = assay: Antiproliferative activity against human HT-29 cells after 48 hrs by propidium iodide staining-based fluorometric analysis; format: functional, cell-based; details: HT-29, 48 h
UACC-257 = assay: Growth inhibition of human UACC257 cells at 10 uM incubated for 48 hrs by sulforhodamine B assay relative to control; format: functional; details: UACC-257, 48 h, read-out: GI
MOLT-4 = assay: Growth inhibition of human MOLT4 cells at 10 uM incubated for 48 hrs by sulforhodamine B assay relative to control; format: functional; details: MOLT-4, 48 h, read-out: GI
SNB-19 = assay: Growth inhibition of human SNB19 cells at 10 uM incubated for 48 hrs by sulforhodamine B assay relative to control; format: functional; details: SNB-19, 48 h, read-out: GI
NCI-H460 = assay: Antiproliferative activity against human H460 cells after 48 hrs by propidium iodide staining-based fluorometric analysis; format: functional, cell-based; details: NCI-H460, 48 h
NCI-H226 = assay: Growth inhibition of human NCI-H226 cells at 10 uM incubated for 48 hrs by sulforhodamine B assay relative to control; format: functional; details: NCI-H226, 48 h, read-out: GI
T47D = assay: Growth inhibition of human T47D cells at 10 uM incubated for 48 hrs by sulforhodamine B assay relative to control; format: functional; details: read-out: GI
HL-60(TB) = assay: Growth inhibition of human HL-60(TB) cells at 10 uM incubated for 48 hrs by sulforhodamine B assay relative to control; format: functional; details: HL-60, 48 h, read-out: GI
OVCAR-8 = assay: Growth inhibition of human OVCAR8 cells at 10 uM incubated for 48 hrs by sulforhodamine B assay relative to control; format: functional; details: OVCAR-8, 48 h, read-out: GI
HT-29 [2] = assay: Growth inhibition of human HT-29 cells at 10 uM incubated for 48 hrs by sulforhodamine B assay relative to control; format: functional; details: HT-29, 48 h, read-out: GI
PANC-1 = assay: Antiproliferative activity against human PANC1 cells after 48 hrs by propidium iodide staining-based fluorometric analysis; format: functional, cell-based; details: PANC-1, 48 h
PC-3 = assay: Growth inhibition of human PC3 cells at 10 uM incubated for 48 hrs by sulforhodamine B assay relative to control; format: functional; details: PC-3, 48 h, read-out: GI
SK-OV-3 = assay: Growth inhibition of human SKOV3 cells at 10 uM incubated for 48 hrs by sulforhodamine B assay relative to control; format: functional; details: SK-OV-3, 48 h, read-out: GI
TK-10 = assay: Growth inhibition of human TK10 cells at 10 uM incubated for 48 hrs by sulforhodamine B assay relative to control; format: functional; details: TK-10, 48 h, read-out: GI
HOP-62 = assay: Growth inhibition of human HOP62 cells at 10 uM incubated for 48 hrs by sulforhodamine B assay relative to control; format: functional; details: HOP-62, 48 h, read-out: GI
RPMI-8226 = assay: Growth inhibition of human RPMI8226 cells at 10 uM incubated for 48 hrs by sulforhodamine B assay relative to control; format: functional; details: RPMI-8226, 48 h, read-out: GI
SR = assay: Growth inhibition of human SR cells at 10 uM incubated for 48 hrs by sulforhodamine B assay relative to control; format: functional; details: read-out: GI
UACC-62 = assay: Growth inhibition of human UACC62 cells at 10 uM incubated for 48 hrs by sulforhodamine B assay relative to control; format: functional; details: UACC-62, 48 h, read-out: GI
SK-MEL-2 = assay: Growth inhibition of human SK-MEL-2 cells at 10 uM incubated for 48 hrs by sulforhodamine B assay relative to control; format: functional; details: SK-MEL-2, 48 h, read-out: GI
HCT-116 = assay: Growth inhibition of human HCT116 cells at 10 uM incubated for 48 hrs by sulforhodamine B assay relative to control; format: functional; details: HCT-116, 48 h, read-out: GI
NCI-H23 = assay: Growth inhibition of human NCI-H23 cells at 10 uM incubated for 48 hrs by sulforhodamine B assay relative to control; format: functional; details: NCI-H23, 48 h, read-out: GI
U-251 = assay: Growth inhibition of human U251 cells at 10 uM incubated for 48 hrs by sulforhodamine B assay relative to control; format: functional; details: U-251, 48 h, read-out: GI
NCI-H322M = assay: Growth inhibition of human NCI-H322M cells at 10 uM incubated for 48 hrs by sulforhodamine B assay relative to control; format: functional; details: read-out: GI
HOP-92 = assay: Growth inhibition of human HOP92 cells at 10 uM incubated for 48 hrs by sulforhodamine B assay relative to control; format: functional; details: HOP-92, 48 h, read-out: GI
A498 = assay: Growth inhibition of human A498 cells at 10 uM incubated for 48 hrs by sulforhodamine B assay relative to control; format: functional; details: A498, 48 h, read-out: GI
MCF7 = assay: Growth inhibition of human MCF7 cells at 10 uM incubated for 48 hrs by sulforhodamine B assay relative to control; format: functional; details: MCF7, 48 h, read-out: GI

| SMILES | inhibition of growth at 10 µM (SNB-75) [%] | inhibition of growth at 10 µM (A549) [%] | IC50 (MIA PaCa-2) [µM] | inhibition of growth at 10 µM (Hs-578T) [%] | inhibition of growth at 10 µM (CCRF-CEM) [%] | inhibition of growth at 10 µM (NCI-H522) [%] | inhibition of growth at 10 µM (UO-31) [%] | IC50 (HT-29 [1]) [µM] | inhibition of growth at 10 µM (UACC-257) [%] | inhibition of growth at 10 µM (MOLT-4) [%] | inhibition of growth at 10 µM (SNB-19) [%] | IC50 (NCI-H460) [µM] | inhibition of growth at 10 µM (NCI-H226) [%] | inhibition of growth at 10 µM (HL-60(TB)) [%] | inhibition of growth at 10 µM (OVCAR-8) [%] | inhibition of growth at 10 µM (HT-29 [2]) [%] | IC50 (PANC-1) [µM] | inhibition of growth at 10 µM (PC-3) [%] | inhibition of growth at 10 µM (SK-OV-3) [%] | inhibition of growth at 10 µM (HOP-62) [%] | also measured |
| --- | --- | --- | --- | --- | --- | --- | --- | --- | --- | --- | --- | --- | --- | --- | --- | --- | --- | --- | --- | --- | --- |
| CC(=O)c1ccc(NC(=O)Cn2nc(C(F)(F)F)nc2N)cc1 | 12.5 | 20 | 4.7 | 7.42 | 6.78 | 21 | 13.7 | 3.8 | 14.6 | 7.46 | 4.37 | 3.7 | 8.52 | 15.4 | 13.3 | 16 | 4.5 | 10.6 | 7.02 | 9.94 | inhibition of growth at 10 µM (T47D): 10.8%; inhibition of growth at 10 µM (TK-10): 5.17% |
| C/C(=N/O)c1ccc(NC(=O)Cn2nc(C(F)(F)F)nc2N)cc1 | 14.8 | 29 | 4.9 |  | 10.5 | 31 | 15.1 | 5.4 | 25.6 | 23.3 |  | 5.2 | 12.9 | 26 | 20.5 | 11.9 | 3.5 | 20.3 | 3.53 | 9.21 | inhibition of growth at 10 µM (RPMI-8226): 4.65%; inhibition of growth at 10 µM (SR): 15.9%; inhibition of growth at 10 µM (UACC-62): 5.39%; inhibition of growth at 10 µM (SK-MEL-2): 13.1%; inhibition of growth at 10 µM (HCT-116): 8.65%; inhibition of growth at 10 µM (NCI-H23): 4.46%; inhibition of growth at 10 µM (U-251): 11.3%; inhibition of growth at 10 µM (NCI-H322M): 4.32%; inhibition of growth at 10 µM (TK-10): 14.3% |
| C/C(=N/O)c1ccc(NC(=O)Cn2nc(-c3ccccc3)nc2N)cc1 | 22.5 | 32 | 5.7 | 7.41 | 6.77 | 30 | 15.4 | 4.7 | 34 | 11.5 | 3.56 | 4.4 | 3.91 | 7.41 | 15.3 | 13.9 | 8.7 | 15.8 | 15.2 | 17.7 | inhibition of growth at 10 µM (HOP-92): 5.82%; inhibition of growth at 10 µM (A498): 19.6%; inhibition of growth at 10 µM (SR): 5.58%; inhibition of growth at 10 µM (SK-MEL-2): 5.32%; inhibition of growth at 10 µM (NCI-H23): 3.98%; inhibition of growth at 10 µM (T47D): 23%; inhibition of growth at 10 µM (U-251): 8.76% |
| CC(=O)c1ccc(NC(=O)Cn2nc(-c3ccc(Cl)cc3)nc2N)cc1 | 6.47 | 22 | 8.1 | 6.29 | 19.9 | 28 | 20.6 | 6.9 | 19.8 | 16.5 | 8.53 | 6.8 |  | 7.98 | 15.4 | 10.4 | 7.4 | 20.3 | 22 | 15.1 | inhibition of growth at 10 µM (HOP-92): 7.76%; inhibition of growth at 10 µM (RPMI-8226): 3.17%; inhibition of growth at 10 µM (SR): 7.32%; inhibition of growth at 10 µM (UACC-62): 6.29%; inhibition of growth at 10 µM (SK-MEL-2): 4.03%; inhibition of growth at 10 µM (HCT-116): 4.68%; inhibition of growth at 10 µM (T47D): 21.6%; inhibition of growth at 10 µM (U-251): 5.94%; inhibition of growth at 10 µM (NCI-H322M): 5.69%; inhibition of growth at 10 µM (MCF7): 5.48% |
